# In patent US20120208809A1, “9H-PYRROLO[2,3-B: 5,4-C'] DIPYRIDINE AZACARBOLINE DERIVATIVES, PREPARATION THEREOF, AND THERAPEUTIC USE THEREOF” (SANOFI, priority 2009, published 2012):
# How the values were obtained:
# Pim-1 = molecular target: T1, Pim-1 (Homo sapiens, UniProt P11309); test: TR-FRET assay of Pim kinase activity (phosphorylation of Bad Ser112), Pim-1; format: biochemical; conditions: ATP 40 μM, read-out: IC50 Pim1
# T1 construct: full-length human recombinant His6-labelled Pim-1, Pim-2 or Pim-3 protein; His6; made in house
# T1 sequence (P11309 whole entry): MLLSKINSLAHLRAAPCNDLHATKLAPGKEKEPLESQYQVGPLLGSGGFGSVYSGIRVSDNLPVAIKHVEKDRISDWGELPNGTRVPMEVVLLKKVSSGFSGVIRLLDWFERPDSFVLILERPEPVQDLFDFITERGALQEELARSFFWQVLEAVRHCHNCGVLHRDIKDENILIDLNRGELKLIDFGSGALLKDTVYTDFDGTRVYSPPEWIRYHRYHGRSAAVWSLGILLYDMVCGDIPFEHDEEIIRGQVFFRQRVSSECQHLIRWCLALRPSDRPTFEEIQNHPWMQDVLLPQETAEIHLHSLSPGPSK
# How it was run: (§1)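 Full-length His6-tagged human Pim-1, -2 or -3 phosphorylate full-length His6-Bad at 40 μM ATP; phospho-Ser112 detected by TR-FRET (Eu anti-phosphoBad, APC anti-His6), 665/615 nm ratio. Compounds run at 10 concentrations in duplicate, typically top 30 μM; IC50 from 4-parameter logistic fit.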
# Pim-2 = molecular target: T2, Pim-2 (Homo sapiens, UniProt Q9P1W9); test: TR-FRET assay of Pim kinase activity (phosphorylation of Bad Ser112), Pim-2; format: biochemical; conditions: ATP 40 μM, read-out: IC50 Pim2
# T2 construct: full-length human recombinant His6-labelled Pim-1, Pim-2 or Pim-3 protein; His6; made in house
# T2 sequence (Q9P1W9 whole entry): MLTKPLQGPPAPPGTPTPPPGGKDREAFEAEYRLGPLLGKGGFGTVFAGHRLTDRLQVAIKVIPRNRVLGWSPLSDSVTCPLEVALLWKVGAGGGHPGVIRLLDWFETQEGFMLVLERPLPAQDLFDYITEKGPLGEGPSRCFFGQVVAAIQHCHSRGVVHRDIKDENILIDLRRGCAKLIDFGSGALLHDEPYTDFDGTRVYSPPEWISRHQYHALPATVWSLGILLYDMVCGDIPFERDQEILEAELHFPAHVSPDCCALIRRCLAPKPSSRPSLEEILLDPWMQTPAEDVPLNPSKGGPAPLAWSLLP
# How it was run: as §1
# Pim-3 = molecular target: T3, Pim-3 (Homo sapiens, UniProt Q86V86); test: TR-FRET assay of Pim kinase activity (phosphorylation of Bad Ser112), Pim-3; format: biochemical; conditions: ATP 40 μM, read-out: IC50 Pim3
# T3 construct: full-length human recombinant His6-labelled Pim-1, Pim-2 or Pim-3 protein; His6; made in house
# How it was run: as §1
# CDK1 = CDK1 (Homo sapiens, UniProt P06493); test: Biochemical results, IC50 CDK1
# CDK1, sequence (P06493 whole entry, species assumed): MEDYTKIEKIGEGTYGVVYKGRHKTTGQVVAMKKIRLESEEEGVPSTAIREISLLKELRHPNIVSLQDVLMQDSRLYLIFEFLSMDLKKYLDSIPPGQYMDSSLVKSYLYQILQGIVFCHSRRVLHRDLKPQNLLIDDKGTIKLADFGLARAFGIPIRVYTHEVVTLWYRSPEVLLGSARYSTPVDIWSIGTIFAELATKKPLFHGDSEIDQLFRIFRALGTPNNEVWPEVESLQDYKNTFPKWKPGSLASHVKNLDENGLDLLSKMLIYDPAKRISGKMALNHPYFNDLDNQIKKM
# CDK1, sequence (P14635 whole entry partner, species assumed): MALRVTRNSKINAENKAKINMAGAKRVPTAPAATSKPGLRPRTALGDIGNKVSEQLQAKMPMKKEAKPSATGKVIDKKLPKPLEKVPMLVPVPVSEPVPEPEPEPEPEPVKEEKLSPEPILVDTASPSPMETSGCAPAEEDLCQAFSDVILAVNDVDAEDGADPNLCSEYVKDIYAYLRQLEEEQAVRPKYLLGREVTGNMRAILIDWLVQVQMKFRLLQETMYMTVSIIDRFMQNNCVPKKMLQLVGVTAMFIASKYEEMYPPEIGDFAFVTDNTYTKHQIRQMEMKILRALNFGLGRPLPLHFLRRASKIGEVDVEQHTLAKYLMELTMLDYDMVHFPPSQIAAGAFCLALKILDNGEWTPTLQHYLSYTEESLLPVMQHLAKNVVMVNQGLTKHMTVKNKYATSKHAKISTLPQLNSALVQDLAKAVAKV
# PLK1 = PLK1 (Homo sapiens, UniProt P53350); test: Biochemical results, IC50 PLK1
# PLK1, sequence (P53350 whole entry, species assumed): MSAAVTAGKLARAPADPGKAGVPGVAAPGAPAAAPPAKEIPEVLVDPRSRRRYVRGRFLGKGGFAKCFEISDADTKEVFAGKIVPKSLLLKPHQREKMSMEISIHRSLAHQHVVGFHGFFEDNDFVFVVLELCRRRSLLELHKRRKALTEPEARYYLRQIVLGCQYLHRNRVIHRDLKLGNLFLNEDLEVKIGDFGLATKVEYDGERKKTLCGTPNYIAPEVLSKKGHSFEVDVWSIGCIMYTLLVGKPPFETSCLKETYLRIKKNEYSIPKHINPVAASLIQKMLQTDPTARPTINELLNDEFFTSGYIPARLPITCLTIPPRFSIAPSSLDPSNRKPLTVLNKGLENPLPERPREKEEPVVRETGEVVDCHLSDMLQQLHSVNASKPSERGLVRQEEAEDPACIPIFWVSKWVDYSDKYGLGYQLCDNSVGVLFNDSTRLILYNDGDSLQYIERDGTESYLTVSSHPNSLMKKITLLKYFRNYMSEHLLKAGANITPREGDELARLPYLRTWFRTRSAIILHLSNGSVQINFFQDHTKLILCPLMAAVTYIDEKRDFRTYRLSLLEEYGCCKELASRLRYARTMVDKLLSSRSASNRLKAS
# EOL-1 = test: Cell viability assay (CellTiter-Blue), EOL-1; format: cell-based; conditions: Homo sapiens, EOL1, read-out: EC50 EOL-1 μM (eosinophilic leukaemia), EOL-1 cells, read-out: EC50 EOL-1 μM (lymphoma);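 further: EOL-1 is an acute myeloid eosinophilic leukaemia line not a lymphoma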
# Text: (§2) The representative compounds of the invention are also screened as regards their effects on cell proliferation and viability, using a variety of tumoral cell lines of human source, representative of different pathological indications. These cell lines include:
# Models of Haematological Cancers: • TF-1 (acute myelogenic leukaemia; AML M6 at the time of diagnosis); • K G-1 (AML; erythroleukaemia evolving into AML); • KG-1a (AML; subclone derived from immature KG-1); • EOL-1 (AML: eosinophilic leukaemia); • PL-21 (AML; M3); • ML-2 (AML; T-NHL evolving into T-ALL evolving into AML M4); • HL-60 (AML, M3); • Kasumi-1 (AML); • GDM-1 (AML); • K-562 (CML—chronic myelogenic leukaemia; blastic crisis); • JURL-MK1 (CML; blastic crisis); • DND-41 (T-ALL—T-cell acute lymphoblastic leukaemia); • Jurkat (T-ALL); NALM-6 (B-ALL B-cell ALL); • CEM (ALL; lymphosarcoma evolving into ALL); • Jeko-1 (B-NHL—B-cell non-Hodgkin lymphoma; lymphoma with coat cells derived from a large-cell variant in leukaemic transformation); • WSU-DLCL2 (B-NHL; diffuse lymphoma with large B cells); • RL (B-NHL; undifferentiated diffuse); • OCl-Ly10 (B-NHL); • DoHH-2 (B-NHL); • RPMI-8226 (MM—multiple myelomas); • JVM-2 (B-CLL—B-cell chronic lymphocytic leukaemia); and • JVM-3 (B-CLL).
# (§3) In order to measure the viability, the tumour cells are incubated in 96-well or 384-well format for 48, 72 or 96 hours, preferably 72 hours, with a compound of the invention at dilutions of a factor 3, with, in general, nine doses in total, the highest dose being equal to 10 μM or 30 μM. The cell viability is evaluated by adding CellTiter-Blue® (Promega, Madison, Wis., United States) for 4 hours and endpoint readings are taken using a SpectraMax Genmini EM plate reader (Molecular Devices, Sunnyvale, Calif., United States). The CellTiter-Blue® cell viability assay measures the ability of the cells in culture to reduce resazurin to resorufin, the intensity of the fluorescence signal being directly proportional to the number of live cells. The EC50 represents the concentration of compound that leads to a 50% reduction of the viability/proliferative expansion of the cells.
# MV4-11 = test: Cell viability assay (CellTiter-Blue), MV4-11; format: cell-based; conditions: Homo sapiens, read-out: EC50 MV4-11 μM (acute myeloid leukemia), MV4-11 cells, read-out: EC50 MV4-11 μM (myeloma)
# Protocol: as §2, §3
# phosphoBAD (DND-41) = test: Level of phosphorylation of Bad by ELISA, DND-41 cell line; format: cell-based; conditions: Homo sapiens, DND41, DND-41 cells, 3 hours at 37° C.
# Protocol: The activity of the molecules is evaluated on the JEKO or DND-41 cell line by measuring the level of phosphorylation of Bad and the total Bad content, via the ELISA technique.
# The JEKO or DND-41 cells are resuspended at a concentration of 500 000 cells per ml. The cells are then diluted in RPMI-1640 medium containing 20% foetal calf serum. 225 μl of cells are placed in a plate. Serial dilutions of the molecules are then performed (8 points, three-fold dilution, range started at 10 mM). Each dilution point is then diluted to 1/100 in medium. Next, 25 μl of each of the concentrations are added to the cells and then incubated for 3 hours at 37° C.
# 100 μl of the cells are transferred into a plate treated with poly-D-Lysine. The plate is then incubated for 5-10 minutes at 37° C. and then centrifuged for 5 minutes at 1500 rpm. A volume of 100 μl of 8% fixing solution (solution of formaldehyde in PBS buffer) is added to each of the wells. After covering with a self-adhesive film and a lid, the plate is incubated for 20 minutes at room temperature and then stored at 4° C. overnight.
# Next, the liquid is removed and two successive washes are performed with washing buffer. 100 μl of quenching buffer are added, followed by incubating for 15 minutes at room temperature. After washing, 100 μl of […] at room temperature. After washing, 50 μl of primary antibody diluted to 1/250 for pBAD (Cell Signaling Cat#5284) and to 1/500 for Bad (MBL Cat#591) are added to each of the plates. Each plate is incubated for 2 hours at room temperature. After two washes, 50 μl of secondary antibody (diluted to 1/16) are added to the pBAD plate (tebu-bio ref; FE-021) and 50 μl of the HRP-conjugated IgG secondary antibody (Santa Cruz Cat #SC-2004; diluted to 1/1000) are added to the Bad plate. Incubation for 1 hour at room temperature is performed. Four washes with the washing solution are performed, followed by three washes with PBS. Finally, 100 μl of the developing solution are added, followed by incubation for 10 minutes. Finally, 100 μl of the quenching solution are added, before reading at 450 nm.
# MOLM-13 = test: Cell viability assay (CellTiter-Blue), MOLM-13; format: cell-based; conditions: Homo sapiens, read-out: EC50 MOLM-13 μM, MOLM-13 cells, read-out: EC50 MOLM-13 μM (myeloma)
# Protocol: as §2, §3
IC50 (Pim-1) [nM],IC50 (Pim-2) [nM],IC50 (Pim-3) [nM],IC50 (CDK1) [nM],IC50 (PLK1) [nM],EC50 (MV4-11) [nM],IC50 (phosphoBAD (DND-41)) [nM],EC50 (MOLM-13) [nM],SMILES,EC50 (EOL-1) [nM]
< 100,< 100,< 100,100 to 1000,100 to 1000,100 to 1000,1000 to 5000,–,"NCCNC(=O)c1ccc(-c2c(F)cnc3[nH]c4cnc(-c5cccnc5)cc4c23)cc1 [Example 28, N-(2-aminoethyl)-4-[3-fluoro-6-(pyridin-3-yl)-9H-pyrrolo[2,3-b:5,4-c′]dipyridin-4-yl]benzamide]",100 to 1000
< 100,< 100,< 100,1000 to 5000,1000 to 5000,100 to 1000,< 100,–,"CC(CN(C)C)NC(=O)c1ccc(-c2c(F)cnc3[nH]c4cnc(-c5cccnc5)cc4c23)cc1 (stereo not shown) [Example 68, N-[1-(dimethylamino)propan-2-yl]-4-[3-fluoro-6-(pyridin-3-yl)-9H-pyrrolo[2,3-b:5,4c′]dipyridin-4-yl]benzamide]",< 100
< 100,< 100,< 100,–,–,< 100,100 to 1000,–,"COCCOc1cnc2[nH]c3cnc(-c4cccnc4)cc3c2c1-c1ccc(C(=O)NCCN(C)C)cc1 [Example 120, N-[2-(dimethylamino)ethyl]-4-[3-(2-methoxyethoxy)-6-(pyridin-3-yl)-9H-pyrrolo[2,3-b:5,4-c′]dipyridin-4-yl]benzamide]",< 100
< 100,100 to 1000,< 100,1000 to 5000,100 to 1000,100 to 1000,100 to 1000,–,"CC(CNC(=O)c1ccc(-c2c(F)cnc3[nH]c4cnc(-c5cccnc5)cc4c23)cc1)N1CCCC1 (stereo not shown) [Example 63, 4-[3-fluoro-6-(pyridin-3-yl)-9H-pyrrolo[2,3-b:5,4-c′]dipyridin-4-yl]-N-[2-(pyrrolidin-1-yl)propyl]benzamide]",100 to 1000
< 100,100 to 1000,< 100,1000 to 5000,100 to 1000,–,–,100 to 1000,"O=C(NCCCN1CCOCC1)c1ccc(-c2c(F)cnc3[nH]c4cnc(-c5cccnc5)cc4c23)cc1 [Example 19, 4-[3-fluoro-6-(pyridin-3-yl)-9H-pyrrolo[2,3-b:5,4-c′]dipyridin-4-yl]-N-[3-(morpholin-4-yl)propyl]benzamide]",100 to 1000
< 100,100 to 1000,< 100,100 to 1000,1000 to 5000,100 to 1000,1000 to 5000,–,"CN(C)CCCN(C)C(=O)c1ccc(-c2c(F)cnc3[nH]c4cnc(-c5cccnc5)cc4c23)cc1 [Example 59, N-[3-(dimethylamino)propyl]-4-[3-fluoro-6-(pyridin-3-yl)-9H-pyrrolo[2,3-b:5,4-c′]dipyridin-4-yl]-N-methylbenzamide]",100 to 1000
< 100,100 to 1000,< 100,1000 to 5000,100 to 1000,100 to 1000,100 to 1000,–,"CC(C)N(CCNC(=O)c1ccc(-c2c(F)cnc3[nH]c4cnc(-c5cccnc5)cc4c23)cc1)C(C)C [Example 66, N-[2-(dipropan-2-ylamino)ethyl]-4-[3-fluoro-6-(pyridin-3-yl)-9H-pyrrolo[2,3-b:5,4-c′]dipyridin-4-yl]benzamide]",< 100
< 100,< 100,< 100,100 to 1000,1000 to 5000,–,1000 to 5000,–,"CN(C)CCNC(=O)c1ccc(-c2c(F)cnc3[nH]c4cnc(-c5cnn(C)c5)cc4c23)cc1 [Example 37, N-[3-(dimethylamino)ethyl]-4-[3-fluoro-6-(1-methyl-1H-pyrazol-4-yl)-9H-pyrrolo[2,3-b:5,4-c′]dipyridin-4-yl]benzamide]",–
< 100,100 to 1000,< 100,1000 to 5000,1000 to 5000,100 to 1000,1000 to 5000,–,"CN1CCC(CCNC(=O)c2ccc(-c3c(F)cnc4[nH]c5cnc(-c6cccnc6)cc5c34)cc2)CC1 [Example 61, 4-[3-fluoro-6-(pyridin-3-yl)-9H-pyrrolo[2,3-b:5,4-c′]dipyridin-4-yl]-N-[2-(1-methylpiperidin-4-yl)ethyl]benzamide]",100 to 1000
< 100,100 to 1000,< 100,100 to 1000,1000 to 5000,100 to 1000,1000 to 5000,–,"CN(C)CCCCNC(=O)c1ccc(-c2c(F)cnc3[nH]c4cnc(-c5cccnc5)cc4c23)cc1 [Example 75, N-[4-(dimethylamino)butyl]-4-[3-fluoro-6-(pyridin-3-yl)-9H-pyrrolo[2,3-b:5,4-c′]dipyridin-4-yl]benzamide]",100 to 1000
< 100,100 to 1000,< 100,1000 to 5000,100 to 1000,100 to 1000,100 to 1000,–,"CN(C)CC(C)(C)CNC(=O)c1ccc(-c2c(F)cnc3[nH]c4cnc(-c5cccnc5)cc4c23)cc1 [Example 52, N-[3-(dimethylamino)-2,2-dimethylpropyl]-4-[3-fluoro-6-(pyridin-3-yl)-9H-pyrrolo[2,3-b:5,4-c′]dipyridin-4-yl]benzamide]",< 100
< 100,100 to 1000,< 100,1000 to 5000,100 to 1000,100 to 1000,100 to 1000,–,"CN(CC1CCCCN1C)C(=O)c1ccc(-c2c(F)cnc3[nH]c4cnc(-c5cccnc5)cc4c23)cc1 (stereo not shown) [Example 64, 4-[3-fiuoro-6-(pyridin-3-yl)-9H-pyrrolo[2,3-b:5,4-c′]dipyridin-4-yl]-N-methyl-N-[(1-methylpiperidin-2-yl)methyl]benzamide]",100 to 1000
